Data published in patent US20150087673A1, “METHODS FOR USING AND BIOMARKERS FOR AMPK-ACTIVATING COMPOUNDS” (RIGEL PHARMACEUTICALS, INC., priority 2013, published 2015).

System: AMPK
Experiment: AMPK activation assay (enzyme-linked immunosorbent assay)
Format: cell-based
In short: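 Read-out: immunodetected kinase activation after compound exposure, run with commercial kit reagents.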

Compound | EC50 [nM]
COc1ccc(OC2CCN(C(=O)c3ccc(C(=O)N[C@H]4CC[C@@H](Oc5ccc(OC)cc5)CC4)nc3)CC2)cc1 [Compound 186, N-((cis)-4-(4-methoxyphenoxy)cyclohexyl)-5-(4-(4-methoxyphenoxy)piperidine-1-carbonyl)picolinamide] | < 500
O=C(c1ccc(N2CCC(Oc3ccc(C(F)(F)F)cc3)CC2)nc1)N1CCN(Cc2ccc(F)cc2)CC1 [Compound 187, (4-(4-fluorobenzyl)piperazin-1-yl)(6-(4-(4-(trifluoromethyl)phenoxy)piperidin-1-yl)pyridin-3-yl)methanone] | 1000 to 5000
N#Cc1ccc(OC2CCN(c3ccc(C(=O)N4CCN(Cc5ccc(F)cc5)CC4)cn3)CC2)cc1 [Compound 188, 4-(1-(5-(4-(4-fluorobenzyl)piperazine-1-carbonyl)pyridin-2-yl)piperidin-4-yloxy)benzonitrile] | 500 to 1000
COc1ccc(C(=O)C2CCN(c3ccc(C(=O)N4CCN(Cc5ccc(F)cc5)CC4)cn3)CC2)cc1 [Compound 189, (4-(4-fluorobenzyl)piperazin-1-yl)(6-(4-(4-methoxybenzoyl)piperidin-1-yl)pyridin-3-yl)methanone] | 1000 to 5000
N#Cc1ccc(O[C@H]2CC[C@@H](NC(=O)c3ccc(C(=O)N4CCC(Oc5ccc(C(F)(F)F)cc5)CC4)cn3)CC2)cc1 [Compound 190, N-((cis)-4-(4-cyanophenoxy)cyclohexyl)-5-(4-(4-(trifluoromethyl)phenoxy)piperidine-1-carbonyl)picolinamide] | < 500
COc1ccc(OC2CCN(C(=O)c3ccc(C(=O)N[C@H]4CC[C@@H](Oc5ccc(C(F)(F)F)cc5)CC4)nc3)CC2)cc1 [Compound 191, 5-(4-(4-methoxyphenoxy)piperidine-1-carbonyl)-N-((cis)-4-(4-(trifluoromethyl)phenoxy)cyclohexyl) picolinamide] | < 500
COc1ccc(C(=O)C2CCN(C(=O)c3ccc(C(=O)N[C@H]4CC[C@@H](Oc5ccc(C(F)(F)F)cc5)CC4)nc3)CC2)cc1 [Compound 192, 5-(4-(4-methoxybenzoyl)piperidine-1-carbonyl)-N-((cis)-4-(4-(trifluoromethyl)phenoxy)cyclohexyl) picolinamide] | < 500
N#Cc1ccc(OC2CCN(C(=O)c3ccc(C(=O)N[C@H]4CC[C@@H](Oc5ccc(C(F)(F)F)cc5)CC4)nc3)CC2)cc1 [Compound 193, 5-(4-(4-cyanophenoxy)piperidine-1-carbonyl)-N-((cis)-4-(4-(trifluoromethyl)phenoxy)cyclohexyl) picolinamide] | < 500
COc1ccc(C(=O)C2CCN(C(=O)c3ccc(C(=O)NC4CCN(Cc5ccc(N6CCCC6)cc5)CC4)nc3)CC2)cc1 [Compound 194, 5-(4-(4-methoxybenzoyl)piperidine-1-carbonyl)-N-(1-(4-(pyrrolidin-1-yl)benzyl)piperidin-4-yl)picolinamide] | < 500
COc1ccc(OC2CCN(C(=O)c3ccc(C(=O)NC4CCN(Cc5ccc(N6CCCC6)cc5)CC4)nc3)CC2)cc1 [Compound 195, 5-(4-(4-methoxyphenoxy)piperidine-1-carbonyl)-N-(1-(4-(pyrrolidin-1-yl)benzyl)piperidin-4-yl)picolinamide] | < 500
O=C(NC1CCN(Cc2ccc(N3CCCC3)cc2)CC1)c1ccc(C(=O)N2CCC(Oc3ccc(F)cc3)CC2)cn1 [Compound 196, 5-(4-(4-fluorophenoxy)piperidine-1-carbonyl)-N-(1-(4-(pyrrolidin-1-yl)benzyl)piperidin-4-yl)picolinamide] | < 500
N#Cc1ccc(OC2CCN(C(=O)c3ccc(C(=O)NC4CCN(Cc5ccc(N6CCCC6)cc5)CC4)nc3)CC2)cc1 [Compound 197, 5-(4-(4-cyanophenoxy)piperidine-1-carbonyl)-N-(1-(4-(pyrrolidin-1-yl)benzyl)piperidin-4-yl)picolinamide] | < 500
COc1ccc(C(=O)C2CCN(C(=O)c3ccc(C(=O)N[C@H]4CC[C@@H](Oc5ccc(C#N)c(F)c5)CC4)nc3)CC2)cc1 [Compound 198, N-((cis)-4-(4-cyano-3-fluorophenoxy)cyclohexyl)-5-(4-(4-methoxybenzoyl)piperidine-1-carbonyl)picolinamide] | < 500
N#Cc1ccc(O[C@H]2CC[C@@H](NC(=O)c3ccc(C(=O)N4CCC(Oc5ccc(C(F)(F)F)cc5)CC4)cn3)CC2)cc1F [Compound 199, N-((cis)-4-(4-cyano-3-fluorophenoxy)cyclohexyl)-5-(4-(4-(trifluoromethyl)phenoxy)piperidine-1-carbonyl)picolinamide] | < 500
N#Cc1ccc(OC2CCN(C(=O)c3ccc(C(=O)NC4CCN(Cc5ccc(F)cc5)CC4)nc3)CC2)cc1 [Compound 200, 5-(4-(4-cyanophenoxy)piperidine-1-carbonyl)-N-(1-(4-fluorobenzyl)piperidin-4-yl)picolinamide] | < 500
NC(=O)c1ccc(CN2CCC(NC(=O)c3ccc(C(=O)N4CCN(Cc5ccc(F)cc5)CC4)cn3)CC2)cc1 [Compound 201, N-(1-(4-carbamoylbenzyl)piperidin-4-yl)-5-(4-(4-fluorobenzyl)piperazine-1-carbonyl)picolinamide] | 500 to 1000

Compound | EC50 [nM]
COc1ccc(CN2CCC(NC(=O)c3ccc(C(=O)N4CCC(Oc5ccc(S(C)(=O)=O)cc5)CC4)cn3)CC2)cc1 [Compound 202, N-(1-(4-methoxybenzyl)piperidin-4-yl)-5-(4-(4-(methylsulfonyl)phenoxy)piperidine-1-carbonyl)picolinamide] | < 500
CS(=O)(=O)c1ccc(OC2CCN(C(=O)c3ccc(C(=O)NC4CCN(Cc5cc(F)cc(F)c5)CC4)nc3)CC2)cc1 [Compound 203, N-(1-(3,5-difluorobenzyl)piperidin-4-yl)-5-(4-(4-(methylsulfonyl)phenoxy)piperidine-1-carbonyl)picolinamide] | < 500
COc1ccc(C(=O)C2CCN(C(=O)c3cnc(C(=O)Nc4ccc(Oc5ccc(F)cc5)nc4)cn3)CC2)cc1 [Compound 204, N-(6-(4-fluorophenoxy)pyridin-3-yl)-5-(4-(4-methoxybenzoyl)piperidine-1-carbonyl)pyrazine-2-carboxamide] | < 500
O=C(Nc1ccc(Oc2ccc(F)cc2)nc1)c1cnc(C(=O)N2CCC(Oc3ccc(C(F)(F)F)cc3)CC2)cn1 [Compound 205, N-(6-(4-fluorophenoxy)pyridin-3-yl)-5-(4-(4-(trifluoromethyl)phenoxy)piperidine-1-carbonyl)pyrazine-2-carboxamide] | < 500
O=C(Nc1ccc(Oc2ccc(F)cc2)nc1)c1cnc(C(=O)N2CCC(C(=O)c3ccc(F)cc3F)CC2)cn1 [Compound 206, 5-(4-(2,4-difluorobenzoyl)piperidine-1-carbonyl)-N-(6-(4-fluorophenoxy)pyridin-3-yl)pyrazine-2-carboxamide] | < 500
CS(=O)(=O)c1ccc(OC2CCN(C(=O)c3cnc(C(=O)Nc4ccc(Oc5ccc(F)cc5)nc4)cn3)CC2)cc1 [Compound 207, N-(6-(4-fluorophenoxy)pyridin-3-yl)-5-(4-(4-(methylsulfonyl)phenoxy)piperidine-1-carbonyl)pyrazine-2-carboxamide] | < 500
CS(=O)(=O)c1ccc(OC2CCN(C(=O)c3ccc(C(=O)NC4CCN(Cc5ccc(N6CCCC6)cc5)CC4)nc3)CC2)cc1 [Compound 208, 5-(4-(4-(methylsulfonyl)phenoxy)piperidine-1-carbonyl)-N-(1-(4-(pyrrolidin-1-yl)benzyl)piperidin-4-yl)picolinamide] | < 500
N#Cc1ccc(CN2CCC(NC(=O)c3ccc(C(=O)N4CC(Oc5ccc(C#N)cc5)C4)cn3)CC2)cc1 [Compound 209, N-(1-(4-cyanobenzyl)piperidin-4-yl)-5-(3-(4-cyanophenoxy)azetidine-1-carbonyl)picolinamide] | < 500
N#Cc1ccc(OC2CN(C(=O)c3ccc(C(=O)Nc4ccc(Oc5ccc(F)cc5)nc4)nc3)C2)cc1 [Compound 210, 5-(3-(4-cyanophenoxy)azetidine-1-carbonyl)-N-(6-(4-fluorophenoxy)pyridin-3-yl)picolinamide] | > 10000
COc1ccc(C(=O)C2CCN(C(=O)c3cnc(C(=O)NC4CCN(Cc5ccc(C#N)cc5)CC4)cn3)CC2)cc1 [Compound 211, N-(1-(4-cyanobenzyl)piperidin-4-yl)-5-(4-(4-methoxybenzoyl)piperidine-1-carbonyl)pyrazine-2-carboxamide] | < 500
N#Cc1ccc(CN2CCC(NC(=O)c3cnc(C(=O)N4CCC(Oc5ccc(C(F)(F)F)cc5)CC4)cn3)CC2)cc1 [Compound 212, N-(1-(4-cyanobenzyl)piperidin-4-yl)-5-(4-(4-(trifluoromethyl)phenoxy)piperidine-1-carbonyl)pyrazine-2-carboxamide] | < 500
CS(=O)(=O)c1ccc(CN2CCC(NC(=O)c3ccc(C(=O)N4CCC(C(=O)c5ccc(F)cc5F)CC4)nc3)CC2)cc1 [Compound 213, 6-(4-(2,4-difluorobenzoyl)piperidine-1-carbonyl)-N-(1-(4-(methylsulfonyl)benzyl)piperidin-4-yl)nicotinamide] | < 500
CS(=O)(=O)c1ccc(CN2CCC(NC(=O)c3ccc(C(=O)N4CCC(Oc5ccc(C#N)cc5)CC4)nc3)CC2)cc1 [Compound 214, 6-(4-(4-cyanophenoxy)piperidine-1-carbonyl)-N-(1-(4-(methylsulfonyl)benzyl)piperidin-4-yl)nicotinamide] | > 10000
COc1ccc(C(=O)C2CCN(C(=O)c3ccc(C(=O)NC4CCN(Cc5ccc(S(C)(=O)=O)cc5)CC4)cn3)CC2)cc1 [Compound 215, 6-(4-(4-methoxybenzoyl)piperidine-1-carbonyl)-N-(1-(4-(methylsulfonyl)benzyl)piperidin-4-yl)nicotinamide] | > 10000
CS(=O)(=O)Nc1ccc(CN2CCC(NC(=O)c3ccc(C(=O)N4CCC(C(=O)c5ccc(F)cc5F)CC4)nc3)CC2)cc1 [Compound 216, 6-(4-(2,4-difluorobenzoyl)piperidine-1-carbonyl)-N-(1-(4-(methylsulfonamido)benzyl)piperidin-4-yl)nicotinamide] | > 10000
CS(=O)(=O)Nc1ccc(CN2CCC(NC(=O)c3ccc(C(=O)N4CCC(Oc5ccc(C#N)cc5)CC4)nc3)CC2)cc1 [Compound 217, 6-(4-(4-cyanophenoxy)piperidine-1-carbonyl)-N-(1-(4-(methylsulfonamido)benzyl)piperidin-4-yl)nicotinamide] | > 10000
